Measurements from PubChem BioAssay (NCI).
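Dose response: 5 concentrations. Exposure: 48 h. Format: 96-well plates. Endpoint: linear interpolation; highest concentration if not reached. Abbreviation: GI50, concentration required for 50% inhibition of growth. At the TGI there is no net growth.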

Tests used:
Test in all cases: NCI anticancer screen, dose series, 48 h
[1] = test system: 786-0 renal
[2] = test system: A498 renal
[3] = test system: A549 NSCLC
[4] = test system: ACHN renal
[5] = test system: BT-549 breast
[6] = test system: CAKI-1 renal
[7] = test system: CCRF-CEM leukemia
[8] = test system: COLO 205 colon
[9] = test system: DU-145 prostate
[10] = test system: EKVX NSCLC
[11] = test system: HCT-116 colon
[12] = test system: HCT-15 colon
[13] = test system: HL-60(TB) leukemia
[14] = test system: HOP-62 NSCLC
[15] = test system: HOP-92 NSCLC
[16] = test system: HS 578T breast
[17] = test system: HT29 colon
[18] = test system: IGROV1 ovarian
[19] = test system: K-562 leukemia
[20] = test system: KM12 colon
[21] = test system: LOX IMVI melanoma
[22] = test system: M14 melanoma
[23] = test system: MALME-3M melanoma
[24] = test system: MCF7 breast
[25] = test system: MDA-MB-231 breast
[26] = test system: MDA-MB-435
[27] = test system: MOLT-4 leukemia
[28] = test system: NCI-H226 lung
[29] = test system: NCI-H23 lung
[30] = test system: NCI-H460 lung
[31] = test system: NCI-H522 lung
[32] = test system: NCI/ADR-RES ovarian
[33] = test system: OVCAR-3 ovarian
[34] = test system: OVCAR-4 ovarian
[35] = test system: OVCAR-5 ovarian
[36] = test system: OVCAR-8 ovarian
[37] = test system: PC-3 prostate
[38] = test system: RXF 393 renal
[39] = test system: SF-268 CNS
[40] = test system: SF-295 CNS
[41] = test system: SF-539 CNS
[42] = test system: SK-MEL-28 melanoma
[43] = test system: SK-MEL-5 melanoma
[44] = test system: SK-OV-3 ovarian
[45] = test system: SN12C renal
[46] = test system: SNB-19 CNS
[47] = test system: SW-620 colon
[48] = test system: T-47D breast
[49] = test system: TK-10 renal
[50] = test system: U251 CNS
[51] = test system: UACC-257 melanoma
[52] = test system: UACC-62 melanoma
[53] = test system: UO-31 renal

Compound `COc1cc(/C=C2\CC3C4CCC5=CC(=O)CC[C@]5(C)C4CC[C@]3(C)C2=O)ccc1OCCCn1ccnc1` (stereo partly specified) has a GI50 [1] of 11.6 µM, a TGI [1] of 23.8 µM and a GI50 [2] of 11.6 µM. The TGI [2] was 23.9 µM, the GI50 [3] was 5.32 µM and the TGI [3] was 21.7 µM. It also gave a GI50 [4] of 10.2 µM, a TGI [4] of 21.8 µM and a GI50 [5] of 4.45 µM. The TGI [5] was 33.4 µM, the GI50 [6] was 8.97 µM and the TGI [6] was 26.9 µM. For the same compound, the GI50 [7] was 3.35 µM, the TGI [7] was 10 µM and the GI50 [8] was 4.52 µM. It also gave a TGI [8] of 22.7 µM, a GI50 [9] of 11.8 µM and a TGI [9] of 24.1 µM. For the same compound, the GI50 [10] was 17.6 µM, the TGI [10] was 45 µM and the GI50 [11] was 2.7 µM. The TGI [11] was 13.1 µM, the GI50 [12] was 4.03 µM and the TGI [12] was 16.2 µM. For the same compound, the GI50 [13] was 2.86 µM, the TGI [13] was 10.2 µM and the GI50 [14] was 11.8 µM. It also gave a TGI [14] of 25.2 µM, a GI50 [15] of 6.22 µM and a TGI [15] of 22.8 µM. For the same compound, the GI50 [16] was 8.45 µM, the TGI [16] was 29.8 µM and the GI50 [17] was 0.794 µM. For the same compound, the TGI [17] was 11.6 µM, the GI50 [18] was 9.13 µM and the TGI [18] was 29.5 µM. The GI50 [19] was 2.69 µM, the TGI [19] was 12.9 µM and the GI50 [20] was 3.75 µM. For the same compound, the TGI [20] was 20 µM, the GI50 [21] was 3.75 µM and the TGI [21] was 14.4 µM. The GI50 [22] was 5.87 µM, the TGI [22] was 23.7 µM and the GI50 [23] was 3.11 µM. The TGI [23] was 13.5 µM, the GI50 [24] was 4.02 µM and the TGI [24] was 19.9 µM. The GI50 [25] was 5.04 µM, the TGI [25] was 21 µM and the GI50 [26] was 5.04 µM. The TGI [26] was 25.6 µM, the GI50 [27] was 4.09 µM and the TGI [27] was 18.9 µM. The GI50 [28] was 11.2 µM, the TGI [28] was 27.5 µM and the GI50 [29] was 2.22 µM. For the same compound, the TGI [29] was 4.43 µM, the GI50 [30] was 4.68 µM and the TGI [30] was 24.5 µM. It also gave a GI50 [31] of 3.8 µM, a TGI [31] of 16.1 µM and a GI50 [32] of 4.51 µM. For the same compound, the TGI [32] was 18.5 µM, the GI50 [33] was 5.17 µM and the TGI [33] was 19.4 µM. The GI50 [34] was 12.4 µM, the TGI [34] was > 100 µM and the GI50 [35] was 18.6 µM. For the same compound, the TGI [35] was 37.9 µM, the GI50 [36] was 5.93 µM and the TGI [36] was 22.1 µM. It also gave a GI50 [37] of 4.1 µM, a TGI [37] of 20.2 µM and a GI50 [38] of 0.0969 µM. It also gave a TGI [38] of 6.94 µM, a GI50 [39] of 13.6 µM and a TGI [39] of 34.4 µM. The GI50 [40] was 2.47 µM, the TGI [40] was 7.41 µM and the GI50 [41] was 7.21 µM. It also gave a TGI [41] of 21.7 µM, a GI50 [42] of 6.55 µM and a TGI [42] of 25.9 µM. It also gave a GI50 [43] of 2.07 µM, a TGI [43] of 7.1 µM and a GI50 [44] of 15.7 µM. For the same compound, the TGI [44] was 30.2 µM, the GI50 [45] was 1.76 µM and the TGI [45] was 8.5 µM. For the same compound, the GI50 [46] was 21.6 µM, the TGI [46] was > 100 µM and the GI50 [47] was 8.23 µM. It also gave a TGI [47] of 23.1 µM, a GI50 [48] of 5.23 µM and a TGI [48] of 19 µM. For the same compound, the GI50 [49] was 15.1 µM, the TGI [49] was 31.2 µM and the GI50 [50] was 9.09 µM. It also gave a TGI [50] of 21.2 µM, a GI50 [51] of 2.1 µM and a TGI [51] of 7.47 µM. The GI50 [52] was 5.18 µM, the TGI [52] was 24.9 µM and the GI50 [53] was 4.36 µM. For the same compound, the TGI [53] was 16.2 µM.
